Like-named read-outs stand apart in the source and are kept apart here.
Legend:
[1] = tested on: LPS-neuroinflammatory mouse model; experiment: Novel object recognition (NOR) test in LPS-neuroinflammatory mouse model; assay type: in vivo, Swiss albino mice; conditions: drug control group (saline + LCA 20 mg/kg ip) vs control group
Text: (§1) A neuroinflammatory mouse model induced by LPS was developed as described before by Lee et al. ([2008a]). This neuroinflammatory model was well-characterized previously by our research group, showing memory impairment, neuroinflammation, and neurodegenerative changes in the cortex and hippocampus (Zakaria et al. [2016]; Abdel-Kader et al. [2021]; Samir et al. [2023]; Wagdy et al. [2023]).
(§2) Mice were divided randomly into four groups as follows: (i) control group, mice received vehicle injections (saline followed by DMSO/corn-oil vehicle); (ii) LPS onlygroup, LPS followed by the DMSO/corn-oil vehicle; (iii) treatment group, LPS followed by LCA; and (iv) drug control group, saline followed by LCA. […] This timing also avoids potential direct pharmacological interaction and is consistent with previous post-LPS treatment protocols (Zakaria et al. [2016]; Badshah et al. [2016]).
(§3) The behavioral assessment was performed 24 h after the final dose (day 8), after which all mice were sacrificed, and their brains were collected for subsequent bioanalysis (Fig. 1).
A total number of 40 mice were randomly assigned into four groups (n = 10 per group) before performing the behavioral experiments and kept blinded throughout the study until all data had been collected. The experimental unit in these assays was a single animal, and the primary outcomes were memory and cognitive functions. […]

[2] = Pharmacokinetic study of LCA in mice brain tissues (non-compartmental analysis); assay type: in vivo, Swiss albino mice
Procedure: (§4) Mice were sacrificed by cervical dislocation, and their brains were collected and separated from the cerebellum. The collected brains were washed with ice-cold Tris buffer (5 mM, pH 7.4) and then homogenized with 1 mL of the Tris buffer/100 mg brain using the 5-mL Dounce homogenizer. The brain homogenates were stored at − 80 °C till analysis. […] The homogenization included the entire brain components, allowing for a comprehensive analysis of LCA in the samples.
Brain homogenates were removed from the − 80 °C freezer and allowed to come to room temperature. Brain matrix extraction was performed as described before (Paulke et al. [2006]) with slight modifications. Briefly, in tightly sealed polypropylene tubes, 300 µL brain homogenate was mixed with 300 µL methanol, 200 µL tert-butyl hydroquinone (TBHQ) solution (5 mg/mL), and 200 µL HCl (1 M). The reaction mixture was vortexed for 1 min and inserted into a heat block at 90 °C for 2 h. The reaction tubes were then centrifuged at 3700 × g for 10 min, and the supernatant was collected in micro-centrifuge tubes and transferred for derivatization.
The chosen method for derivatization in this study involves silylation, utilizing the N, O-Bis(trimethylsilyl) trifluoroacetamide (BSTFA) as a silylating agent. The derivatization reaction is employed to produce silyl derivatives of the analyte, which are more volatile and more thermally stable. The reaction replaces active hydrogens with trimethylsilyl groups (TMS) through SN2 nucleophilic attack (Halket and Zaikin [2003]). Extracted samples or reference standards were first placed in a vacuum concentrator for 2 h before performing the derivatization reaction to ensure complete dryness. Dried sample residues were derivatized by adding 150 µL of the mixture of BSTFA and pyridine in a (4:1) ratio into the samples’ tubes. The derivatization reaction was performed at 60 °C for 1 h (Fig. 2). The tubes were centrifuged at 21,460 × g for 1 min and transferred to glass vials suitable for GC–MS/MS analysis.
For pharmacokinetic analysis, 30 adult male Swiss albino mice were randomly divided into six groups (n = 5 for each group), according to sample collection times. […] Mice were sacrificed, and brain tissues were collected after 0, 2, 4, 6, 8, and 24 h post-dosing and were then kept at − 80 °C before sample treatment. Collected brain samples were then extracted and derivatized as described previously and then further analyzed using the GC–MS/MS in MRM mode using the established MRM transitions. Pharmacokinetic parameters were determined by non-compartmental analysis using PK solutions software, version 2.0 (Summit Research Services).

[3] = design: method as in Weng et al. [2019]; conditions: ref Weng et al. [2019], cited from earlier work
[4] = Permeability of LCA across BBB: GC-MS/MS detection and quantification in brain tissue after the treatment regimen; assay type: in vivo, Swiss albino mice; conditions: treated (LPS + LCA) and drug control groups; peak at RT 11.22 min
Text: as §2, §3, §4
Brain homogenates were removed from the − 80 °C freezer and allowed to come to room temperature. […]
For both qualitative and quantitative analysis on mice brain samples, the MSD was operated in time-segmented MRM mode for the selected transition ions.

[5] = tested on: LPS-neuroinflammatory mouse model; experiment: Y-maze spontaneous alternation test in LPS-neuroinflammatory mouse model; assay type: in vivo, Swiss albino mice
Procedure: as §1, with “[2023]). […]” for “[2023]).”
The short-term spatial working memory and exploratory activity of the mice were assessed using the Y-maze spontaneous alteration test, according to the working protocol of Arai et al. ([2001]). […] The sequences of animal’s entries in the arms were recorded. For an entry to be counted, the four paws and the tail of the animal have to be inside the arm. […] Working memory was calculated based on the number of spontaneous alternations, which is defined as successive entries into three distinct arms consecutively without any repeated entry to any of the arms. The results were expressed as “spontaneous alternation percentage” using the equation: % spontaneous alternation = [Spontaneous alternations/(Total number of entries − 2)] × 100.

[6] = male, Swiss albino, mouse, brain, ip, 20 mg/kg
[7] = single ip 20 mg/kg LCA after 7 days LPS, brain tissue, mean ± SD, n = 5
[8] = intravenous 5 mg/kg single dose

Tmax [2, 6]: 4 h
half-life [2, 6]: 17.1 ± 5.98 h
MRT last ([2]; male, Swiss albino, mouse, brain, ip, 20 mg/kg, read-out: MRT0-t): 10.5 ± 0.69 h
Cl/F [2, 7]: 17.90 ± 5.33 (mg/kg)/h
Vz/F [2, 7]: 529.74 ± 139.18 mg/kg
concentration in brain tissue until 8 h post-injection ([2]; single ip 20 mg/kg LCA after 7 days LPS, up to 8 h post-injection): above 15 µg/mg
detection of LCA in brain (passage of BBB) [4]: presence of LCA peak
Structure (SMILES): C=CC(C)(C)c1cc(/C=C/C(=O)c2ccc(O)cc2)c(OC)cc1O [LCA, (2E)−3-[4-Hydroxy-2-methoxy-5-(2-methylbut-3-en-2-yl)phenyl]−1-(4-hydroxyphenyl)prop-2-en-1-one]
non-spatial memory (NOR), LCA alone vs control [1]: did not show alteration
Cmax (plasma) [3, 8]: 3173.5 ± 483.0 ng/mL
Tmax (plasma) [3, 8]: 0.0833 h
Cmax (plasma) ([3]; oral 15 mg/kg single dose): 60.7 ± 13.9 ng/mL
Tmax (plasma) ([3]; oral 15 mg/kg single dose): 0.5 h
explorative behavior / spatial short-term memory (spontaneous alternation %, Y-maze) ([5]; LPS + LCA vs LPS group, LCA 20 mg/kg ip days 4-7, LPS 250 µg/kg ip days 1-7, tested day 8, p < 0.01): restored the explorative behavior
spatial short-term memory (Y-maze), LCA alone vs control ([5]; drug control group (saline + LCA 20 mg/kg ip) vs control group): did not show alteration

— PMC12901191, “Detection and pharmacokinetics of licochalcone A in brains of neuroinflammatory mouse model” (Naunyn-Schmiedeberg's Archives of Pharmacology, 2025)
